Assay results published in article PMC10794626, “Investigations of potential non-amino acid SNAT2 inhibitors” (Frontiers in Pharmacology, 2024).
≈ marks a conversion by molar mass, not a printed value. Counter-ions that a name gives are not always drawn. Like-named read-outs stand apart in the source and are kept apart here. Blank lines part the entries; values can stand above or below the compound they belong to.

Legend:
SNAT2 = target: T1, SNAT2 (Homo sapiens, UniProt Q96QD8); experiment: 3H-Gly uptake in hyperosmotically treated PC-3 cells; type: cell-based; settings: for Inhibition of 3H-Gly uptake (overall finding, in words): concentration not given, 54F at the highest soluble concentration
T1 construct: endogenous in cells; host or cells: PC-3 cells (ECACC 90,112,714), 24 h in hyperosmotic medium
T1 sequence (Q96QD8 1-506): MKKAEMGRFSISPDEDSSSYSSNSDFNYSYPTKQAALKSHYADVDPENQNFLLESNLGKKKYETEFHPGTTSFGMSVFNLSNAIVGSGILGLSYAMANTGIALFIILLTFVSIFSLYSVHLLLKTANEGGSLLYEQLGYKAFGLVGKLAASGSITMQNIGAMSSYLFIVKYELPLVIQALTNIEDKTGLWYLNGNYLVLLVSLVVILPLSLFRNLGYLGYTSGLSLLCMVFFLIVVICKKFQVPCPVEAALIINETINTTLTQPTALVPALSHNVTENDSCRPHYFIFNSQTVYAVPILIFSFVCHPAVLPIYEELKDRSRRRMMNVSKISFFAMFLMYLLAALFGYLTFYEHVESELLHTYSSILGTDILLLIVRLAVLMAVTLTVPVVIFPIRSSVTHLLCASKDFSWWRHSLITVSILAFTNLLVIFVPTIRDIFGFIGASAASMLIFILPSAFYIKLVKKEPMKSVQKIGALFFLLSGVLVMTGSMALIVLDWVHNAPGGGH
Procedure: PC-3 cells (ECACC 90,112,714) were obtained from the European Collection of Authenticated Cell Cultures (ECACC; UK Health Security Agency, Salisbury, United Kingdom) and were received in passage 31. […] The cells were kept incubated at 37°C in an atmosphere of 5% CO2 and 94%–97% relative humidity and the culture medium was changed every 2–3 days. For hyperosmotic stimulation, PC-3 cells were incubated in hyperosmotic media for 24 h before the uptake experiment. The hyperosmotic media was made by supplementing normal isoosmotic culture medium with 200 mM raffinose to reach an osmolality of approximately 500 mOsm ⋅ kg^−1. For uptake studies, the PC-3 cells were seeded in 24-well plates (area of 1.9 cm^2) at a density of 1.5 ⋅ 10^5 cells ⋅ cm^−2 2 days before the experiment. Experiments were performed using PC-3 cells in passages 2–15 after thawing.
Hyperosmotically treated PC-3 cells were used to study the uptake of radiolabeled ^3H-Gly. Solutions were prepared using Hanks Balanced Salt Solution (HBSS), which consisted of the following (mM): CaCl2, 1.26; MgCl2, 0.49; MgSO4, 0.41; KCl, 5.33; KH2PO4, 0.44; NaCl, 138; Na2HPO4, 0.34; D-glucose, 5.56; NaHCO3, 4.17. HBSS was supplemented with 10 mM HEPES and adjusted to pH 7.4 ± 0.01 (HBSS*) with […]. Donor solutions contained 0.5 μCi/mL of ^3H-glycine (11.1 nM). MMTC was also investigated at a substrate concentration of 100 µM Gly, which was achieved by the addition of unlabeled Gly to donor solutions containing 0.5 μCi/mL of ^3H-Gly (11.1 nM). […] Before starting the uptake experiment the media was aspirated, and the cells were preincubated in HBSS* for 15 min at 37°C and 220 rpm. To initiate the uptake study, the buffer was removed and 300 µL of prewarmed (37°C) donor solution was added to the cells and incubated at 37°C. During incubation, the cells were circularly rotated at 220 rpm using a Talboys incubating microplate shaker (Troemner, Thorofare, NJ, United States). After 5 min, the uptake experiment was terminated by removing the buffer solutions by vacuum suction, and the cells were washed thrice with 500 µL ice-cold HBSS. […] The cells were then detached by applying 200 µL of 0.1% Triton-X 100 for at least 25 min and cells were then transferred to scintillation vials along with 2 mL of Ultima Gold scintillation fluid. The vials were vortexed before being analyzed by a liquid scintillation counter, which was a TriCarb 4910 TR from PerkinElmer (Waltham, MA, United States).
^3H-Gly uptake values were normalized to the control uptake of each experiment, but without subtracting any background uptake.
Statistical differences were tested in GraphPad Prism 9.4.1 using one-way ANOVA followed by Dunnett’s multiple comparison test. The significance level used was p < 0.05 (*). Data are represented as means ± SEM from independent cell passages (n) unless otherwise stated.

[1] = Equilibrium solubility in HBSS* buffer (HPLC-UV); type: physicochemical; settings: HEPES buffered HBSS (HBSS*) buffer, pH 7.4, 37°C, mean ± SD, N = 3
Procedure: The mobile phases (MP) consisted of ultra-pure water containing 0.1% trifluoroacetic acid (MP A) and acetonitrile containing 0.1% trifluoroacetic acid (MP B). A reversed-phase column (Nova-Pak® C18, 4 μm, 3.9 × 150 mm, Waters, Milford, MA, United States) was applied and maintained at 22°C. The flow was constant at 0.6 mL ⋅ min^−1 with an isocratic elution of 40% MP A and 60% MP B for 53B, 55B, and 57B, an isocratic elution of 30% MP A and 70% MP B with a constant flow of 0.8 mL ⋅ min^−1 for MMTC, and an isocratic elution of 60% MP A and 40% MP B with a constant flow of 0.6 mL ⋅ min^−1 for […]. Samples of 20 μL, maintained at 25°C, were injected and all five compounds were measured at 270 nm. […] The calibration curves ranged from 5 to 30 µM for MMTC and 53B and from 7.5 to 30 µM for 54F, 55B, and 57B. Linear regression of peak height as a function of concentration was analyzed using GraphPad Prism 9.4.1.
The 5 mL vials were then left on a rotator covered in aluminum foil at 37°C. After 72 h rotation, the solutions were equally distributed into three 1.5 mL microtubes, to do triplicate measurements, and centrifuged at 10,000 g at room temperature for 10 min. The supernatant was removed and for 53B, 54F, and 57B the supernatant was diluted 1:2 with their respective mobile phases. For MMTC and 55B, the supernatant was diluted 2:1 with their respective mobile phase. The diluted samples were analyzed by HPLC-UV as described in Section 2.4.
For the quantification of MMTC, 53B, 54F, 55B, and 57B a linear regression was made of each of the calibration curves, where the known concentrations were plotted as a function of the peak height.

[2] = Kinetic solubility of MMTC diluted from DMSO stock into HBSS*; type: physicochemical; settings: HBSS* buffer, 37°C
Procedure: Quantification of compounds was performed using a Waters 2695 HPLC system (Waters Corporation, MA, United States) connected to a Waters 2487 Dual λ Absorbance Detector (Waters Corporation, MA, United States). The mobile phases (MP) consisted of ultra-pure water containing 0.1% trifluoroacetic acid (MP A) and acetonitrile containing 0.1% trifluoroacetic acid (MP B). A reversed-phase column (Nova-Pak® C18, 4 μm, 3.9 × 150 mm, Waters, Milford, MA, United States) was applied and maintained at 22°C. The flow was constant at 0.6 mL ⋅ min^−1 with an isocratic elution of 40% MP A and 60% MP B for 53B, 55B, and 57B, an isocratic elution of 30% MP A and 70% MP B with a constant flow of 0.8 mL ⋅ min^−1 for MMTC, and an isocratic elution of 60% MP A and 40% MP B with a constant flow of 0.6 mL ⋅ min^−1 for […]. Samples of 20 μL, maintained at 25°C, were injected and all five compounds were measured at 270 nm. MMTC, 53B, 54F, 55B, and 57B had retention times of 4.00, 2.47, 5.14, 2.92, and 4.00 min, respectively. […] Linear regression of peak height as a function of concentration was analyzed using GraphPad Prism 9.4.1. […]
The 5 mL vials were then left on a rotator covered in aluminum foil at 37°C. […] The diluted samples were analyzed by HPLC-UV as described in Section 2.4. […]

PC-3 cells = tested on: PC-3 cells; set-up: method as in Nielsen et al., 2022; settings: ref Nielsen et al., 2022, read-out: Km of uptake; cited from earlier work
ASCT2 = tested on: ASCT2; set-up: method as in Schulte et al., 2016; Schulte et al., 2018; settings: HEK293 cells, ref Schulte et al., 2016, 2018; cited from earlier work
[3] = at soluble conditions / within soluble concentration range

Structure (SMILES): N=C(N)NCCC[C@H](N)C(=O)O [L-Arg, L-arginine hydrochloride]
Effect on 3H-Gly uptake (SNAT2; 20 mM, 11.1 nM 3H-Gly, 5 min): did not affect the uptake significantly

Structure (SMILES): O=C(O)[C@@H]1CCCN1 [Pro]
Km (PC-3 cells): 780 ± 100 µM

Structure (SMILES): CC(C)c1ccc(S(=O)(=O)Nc2ccc3nc(S(C)(=O)=O)sc3c2)cc1 [54F]
Inhibition of 3H-Gly uptake compared to control (SNAT2; 50 µM compound, 11.1 nM 3H-Gly, 5 min, 37°C, 1% DMSO): approximately 20% | Inhibition of 3H-Gly uptake (overall finding, in words) (SNAT2): significant, but small, inhibition | solubility thermodynamic ([1]; aqueous buffer): 56.1 ± 0.5 µM (≈ 23 µg/mL)

Structure (SMILES): C[N+](C)(C)CC(=O)O [betaine]
Inhibition of Gly uptake (in words) (SNAT2; 50 mM betaine, 20 mM Gln, Figure 1): almost completely inhibits | Inhibition of 3H-Gly uptake (SNAT2; 50 mM, 11.1 nM 3H-Gly, 5 min): around 86%

Structure (SMILES): NCC(=O)O [Gly, glycine]
Km (PC-3 cells): 750 ± 160 µM

Structure (SMILES): Cc1cccc(COc2ccccc2CN(CC[C@H](N)C(=O)O)Cc2ccccc2OCc2cccc(C)c2)c1 [V-9302]
IC50 (ASCT2): 7 to 10 µM

More lines, now with the values ahead:

Inhibition of 3H-Gly uptake (SNAT2; [3]): no inhibition | solubility thermodynamic ([1]; aqueous buffer): 27.5 ± 1 µM (≈ 12.2 µg/mL)
Structure (SMILES): Cc1nc(-n2nc(C)c(Cc3ccc(Cl)cc3)c2C)sc1C(=O)N1CCN(C)CC1 [57B]

Inhibition of 3H-Gly uptake (SNAT2; [3]): no inhibition | solubility thermodynamic ([1]; aqueous buffer): 13.2 ± 1.6 µM (≈ 5.56 µg/mL) | solubility thermodynamic [1]: 13.3 µM (≈ 5.6 µg/mL)
Structure (SMILES): COC(=O)c1ccccc1NC(=O)Nc1c(-c2ccncc2)[nH]c2ccc(Cl)cc12 [55B]

Inhibition of Gly uptake (SNAT2; 1 µM MMTC, substrate concentration 100 µM Gly, Supplementary Figure S1, n = 1): does not inhibit | Inhibition of SNAT2-mediated 3H-Gly uptake (SNAT2; 1 µM compound, 11.1 nM 3H-Gly, 5 min, 37°C, 1% DMSO): no inhibition | Inhibition of SNAT2-mediated 3H-Gly uptake (SNAT2; 5 µM compound, 11.1 nM 3H-Gly, 5 min, 37°C, 1% DMSO): no inhibition | Inhibition of 3H-Gly uptake (overall finding, in words) (SNAT2): did not inhibit | solubility kinetic ([2]; aqueous buffer, kinetic from dmso stock, within 15 min, remained stable for at least 45 min, read-out: MMTC concentration after dilution of DMSO stock to 10 µM in HBSS*): ~2.5 µM (≈ 1.17 µg/mL) | solubility kinetic ([2]; pH 7.4, HBSS*, during the course of the uptake study, read-out: Kinetic solubility): 2.5 to 10 µM (≈ 1.17 to 4.69 µg/mL) | solubility thermodynamic ([1]; aqueous buffer): < 1.8 µM
Structure (SMILES): Cc1ccc(S(=O)(=O)N(C)c2ccsc2C(=O)NCc2ccccc2C(F)(F)F)cc1 [MMTC, 3-(N-methyl (4-methylphenyl)sulfonamido)-N-(2-trifluoromethylbenzyl)thiophene-2-carboxamide]

Inhibition of 3H-Gly uptake (SNAT2; [3]): no inhibition | solubility thermodynamic ([1]; aqueous buffer): 24.9 ± 0.8 µM (≈ 9.6 µg/mL)
Structure (SMILES): Cc1ccccc1Nc1c(-c2ccc(N3CCOCC3)cc2)nc2cnccn12 [53B]
